Results published in patent US7893066B2, “Pyridol[2,3-B]pyrazinones for use as stearoyl CoA desaturase inhibitors” (Gilead Palo Alto, Inc., priority 2006, dated 2011).

Target: T1, stearoyl-CoA desaturase (SCD) (Rattus norvegicus, UniProt P07308)
T1 construct: from tissue; host or cells: liver microsomes of male Sprague Dawley rats, with SCD induced by a carbohydrate-rich diet
T1 sequence (P07308 1-358): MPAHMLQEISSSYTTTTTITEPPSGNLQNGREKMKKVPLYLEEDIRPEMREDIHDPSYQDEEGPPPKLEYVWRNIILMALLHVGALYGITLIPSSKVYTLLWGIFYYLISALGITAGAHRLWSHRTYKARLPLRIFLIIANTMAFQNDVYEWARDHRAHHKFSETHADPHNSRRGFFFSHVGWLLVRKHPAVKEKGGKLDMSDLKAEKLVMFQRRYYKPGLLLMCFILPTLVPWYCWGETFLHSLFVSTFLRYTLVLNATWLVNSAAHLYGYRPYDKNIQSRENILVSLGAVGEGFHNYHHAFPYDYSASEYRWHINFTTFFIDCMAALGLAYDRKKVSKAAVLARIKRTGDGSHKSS
Test: SCD assay, rat liver microsomes with [3H]stearoyl CoA (adapted from Talamo and Bloch)
Assay type: biochemical
Details: second table, same SCD assay
Text: The identification of compounds of the invention as SCD inhibitors was readily accomplished using the SCD enzyme and microsomal assay procedure described in Talamo and Bloch (1969) Analytical Biochemistry 29:300-304.
The rat liver microsomes were collected according to the procedure described in Ozols (1990) Methods Enzm, 182:225.
Male Spraque Dawley Rats were placed on regimented fasting protocol for one week to stimulate SCD enzymatic activity. 48-hour periods were alternated between feeding and fasting to induce and down-regulate SCD activity with SCD activity being induced via carbohydrate rich diet prior to liver perfusion and collection.
The rats were anesthetized with Isoflurane inhalation anesthetic, the liver perfused with cold phosphate buffered saline (PBS), weighed, and chilled in cold homogenization buffer (250 mM sucrose, 10 mM Tris, 1 mM EDTA, pH 7.6.
The livers were finely minced and placed in homogenization tube. 40 mL of homogenization buffer was added to the homogenization tube and the liver homogenized and centrifuged in a pre-chilled SLA-600 TC at 800G rotor for 10 min at 4° C.
Following centrifugation, the supernatant was collected and the pellet removed and discarded. This supernatant was then centrifuged at 10,000G for 35 minutes. Following centrifugation, the supernatant was collected and the pellet discarded. The supernatant was further centrifuged in a pre-chilled 45-Ti rotor at 130,000 G (41,000 RPM) for 90 minutes at 4° C.
The supernatant was then aspirated off and the collected microsomal pellet washed in 25 mL of Glycerol PBS (1×PBS 7.4, 20% Glycerol) and resuspended in 4-5 volumes of Glycerol PBS.
The protein concentration of the microsomal preparation was determined by BCA assay (Pierce) and the microsomes were aliquoted and stored at −80° C.
Biobeads were ground to a smaller size in a mortar and pestle and filtered through 300 μM mesh and then resuspended in 3.6% TCA.
SCD was determined in the desaturase assay buffer. This assay buffer contained 0.1 M Tris buffer, pH 7.2, 2 mM NADH, 4.8 mM ATP, 0.5 mM CoA, 4.8 mM MgCl2, and 0.1% BSA.
1 μl of each compound of Formula I was added to an assay plate by a low volume (0.5-10 μL) multichannel pipette. A DMSO control was also prepared. The microsomes were quickly thawed and added to assay buffer so that a concentration of 1-0.1 mg/ml was achieved (0.5-0.05 mg/ml assay final). 50 μl of the microsome suspension in assay buffer was then added into each well in the compound assay plate, the plate was covered, and the microsomes preincubated with the compounds for 30-60 minutes on the orbital shaker, 50-75 rpm, at room temperature.
After preincubation, the reaction was initiated by the addition of 50 μl of substrate solution (20 μM Stearoyl CoA, [3H]Stearoyl CoA, 74nCi) to the preincubated microsomes/compound suspensions in MilliQ (Millipore) H2O. The reaction mixtures were then incubated for 45 minutes on the orbital shaker at 50-75 rpm at room temperature.
The reaction was terminated by the addition of 10 μl of 21% trichloroacetic acid (TCA) to the reaction mixture followed incubation on the orbital shaker for 30 minutes at 50-75 rpm at room temperature followed by centrifugation for 5 minutes at 3700 rpm.
50 μl of a 6% Bio-Bead suspension in H2O was added to the reaction mixture and the assay plate was sealed. The Bio-Bead mixture was incubated on the orbital shaker for 1 to 24 hours, 100-150 rpm at room temperature, and then the mixture was centrifuged at 2000g for 5 minutes to pellet the Bio-Beads.
25 μl of the supernatant was harvested from each well and transferred to a detection plate. 100 μl of OptiPhase SuperMix scinitillation cocktail (containing sufficient NaOH to neutralize the TCA) was added and the solutions mixed by vigorous shaking (300-400 rpm) for 5 minutes at room temperature.

| SMILES | IC50 [nM] |
| --- | --- |
| CC(=O)NCCn1c(=O)c(-c2ccc(NC(C)=O)cc2)nc2ccc(NCc3cccc(C(F)(F)F)c3)nc21 [compound 25, N-(4-(4-(2-acetamidoethyl)-3-oxo-6-(3-(trifluoromethyl)benzylamino)-3,4-dihydropyrido[2,3-b]pyrazin-2-yl)phenyl)acetamide] | 4300 |
| CC(=O)NCCn1c(=O)c(-c2ccc(C)cc2)nc2ccc(NCc3cccc(C(F)(F)F)c3)nc21 [compound 26, N-(2-(3-oxo-2-p-tolyl-6-(3-(trifluoromethyl)benzylamino)pyrido[2,3-b]pyrazin-4(3H)-yl)ethyl)acetamide] | 110 |
| CCc1ccc(-c2nc3ccc(NCc4cccc(C(F)(F)F)c4)nc3n(CCNC(C)=O)c2=O)cc1 [compound 27, N-(2-(2-(4-ethylphenyl)-3-oxo-6-(3-(trifluoromethyl)benzylamino)pyrido[2,3-b]pyrazin-4(3H)-yl)ethyl)acetamide] | 93 |
| CC(=O)NCCn1c(=O)c(-c2ccc(F)cc2)nc2ccc(NCc3cccc(C(F)(F)F)c3)nc21 [compound 28, N-(2-(2-(4-fluorophenyl)-3-oxo-6-(3-(trifluoromethyl)benzylamino)pyrido[2,3-b]pyrazin-4(3H)-yl)ethyl)acetamide] | 390 |
| COc1ccc(-c2nc3ccc(NCc4ccc(Cl)c(Cl)c4)nc3n(CCNC(=O)CN(C)C)c2=O)cc1 [compound 32, N-(2-(6-(3,4-dichlorobenzylamino)-2-(4-methoxyphenyl)-3-oxopyrido[2,3-b]pyrazin-4(3H)-yl)ethyl)-2-(dimethylamino)acetamide] | 12000 |
| COc1ccc(-c2nc3ccc(NCc4ccc(Cl)c(Cl)c4)nc3n(CCNC(=O)COC(C)=O)c2=O)cc1 [compound 33, 2-(2-(6-(3,4-dichlorobenzylamino)-2-(4-methoxyphenyl)-3-oxopyrido[2,3-b]pyrazin-4(3H)-yl)ethylamino)-2-oxoethyl acetate] | 120 |
| Cc1nc2ccc(NCc3cccc(C(F)(F)F)c3)nc2n(CCCC(N)=O)c1=O [compound 36, 4-(2-methyl-3-oxo-6-(3-(trifluoromethyl)benzylamino)pyrido[2,3-b]pyrazin-4(3H)-yl)butanamide] | 1600 |
| COc1ccc(-c2nc3ccc(NCc4ccc(Cl)c(Cl)c4)nc3n(CCNC(=O)CN)c2=O)cc1 [compound 40, 2-amino-N-(2-(6-(3,4-dichlorobenzylamino)-2-(4-methoxyphenyl)-3-oxopyrido[2,3-b]pyrazin-4(3H)-yl)ethyl)acetamide] | 1900 |
| COc1ccc(-c2nc3ccc(NCc4ccc(Cl)c(Cl)c4)nc3n(CCNC(=O)CNC(C)=O)c2=O)cc1 [compound 41, 2-acetamido-N-(2-(6-(3,4-dichlorobenzylamino)-2-(4-methoxyphenyl)-3-oxopyrido[2,3-b]pyrazin-4(3H)-yl)ethyl)acetamide] | 1100 |
| COc1ccc(-c2nc3cc(NCc4ccc(Cl)c(Cl)c4)cnc3n(CCNC(C)=O)c2=O)cc1 [compound 42, N-(2-(7-(3,4-dichlorobenzylamino)-2-(4-methoxyphenyl)-3-oxopyrido[2,3-b]pyrazin-4(3H)-yl)ethyl)acetamide] | 2200 |
| CC(=O)NCCn1c(=O)c(C)nc2cc(NCc3ccccc3)cnc21 [compound 43, N-(2-(7-(benzylamino)-2-methyl-3-oxopyrido[2,3-b]pyrazin-4(3H)-yl)ethyl)acetamide] | 1100 |
| CC(=O)NCCN1C(=O)C(C)Nc2cc(NC(=O)OCc3ccccc3)cnc21 (stereo not shown) [compound 44, benzyl 4-(2-acetamidoethyl)-2-methyl-3-oxo-1,2,3,4-tetrahydropyrido[2,3-b]pyrazin-7-ylcarbamate] | 240 |
| COc1ccc(-c2nc3ccc(NCc4cccc(C(F)(F)F)c4)nc3n(NC(=O)COC(C)=O)c2=O)cc1 [compound 45, 2-(2-(4-methoxyphenyl)-3-oxo-6-(3-(trifluoromethyl)benzylamino)pyrido[2,3-b]pyrazin-4(3H)-ylamino)-2-oxoethyl acetate] | 6700 |
